Experimental data: PubChem BioAssay AID248 (DTP/NCI, 2004)
Where “and” joins values, the source holds several entries; their conditions need not be identical. Equal entries are not always repeated. Toxic doses and inconclusive results are not listed. Rule as the data show it: active = T/C of 150% or more; inactive = T/C below 125%.

Test system: L1210 leukemia ip in BDF1 mice, survival T/C
Test: NCI In Vivo Anticancer Drug Screen. Data for tumor model L1210 Leukemia (intraperitoneal) in B6D2F1 (BDF1) mice
Conditions: endpoint: mean survival time, higher = longer survival
How it was run: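 Tumor cells were implanted, animals were treated, and survival was followed. The result divides the treated measurement by the vehicle-control measurement.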

[1] = dose: 50.0 mg/kg/injection, schedule: Q01DX001 (ip), vehicle: saline
[2] = dose: 100.0 mg/kg/injection, schedule: Q01DX001 (ip), vehicle: saline
[3] = dose: 200.0 mg/kg/injection, schedule: Q01DX001 (ip), vehicle: saline
[4] = dose: 400.0 mg/kg/injection, schedule: Q01DX001 (ip), vehicle: saline
[5] = dose: 100.0 mg/kg/injection, schedule: Q01DX009 (ip), vehicle: saline with Tween-80
[6] = dose: 100.0 mg/kg/injection, schedule: Q04DX003 (ip), vehicle: saline with Tween-80
[7] = dose: 200.0 mg/kg/injection, schedule: Q04DX003 (ip), vehicle: saline with Tween-80
[8] = dose: 400.0 mg/kg/injection, schedule: Q01DX009 (ip), vehicle: saline with Tween-80
[9] = dose: 25.0 mg/kg/injection, schedule: Q01DX009 (ip), vehicle: saline with Tween-80
[10] = dose: 50.0 mg/kg/injection, schedule: Q01DX009 (ip), vehicle: saline with Tween-80
[11] = dose: 50.0 mg/kg/injection, schedule: Q04DX003 (ip), vehicle: saline with Tween-80

Measured: T/C

CCOC(=O)C(NC(=O)C(Cc1ccc(N(CCCl)CCCl)cc1)NC(C)=O)C(C)C (stereo unspecified)
inactive: dose: 7.5 mg/kg/injection, schedule: Q01DX009 (ip), vehicle: alcohol 96 % of control | dose: 15.0 mg/kg/injection, schedule: Q01DX009 (ip), vehicle: alcohol 120 % of control | dose: 24.0 mg/kg/injection, schedule: Q01DX009 (ip), vehicle: carboxymethylcellulose (CMC) 96 % of control | dose: 25.0 mg/kg/injection, schedule: Q01DX009 (ip), vehicle: saline 98 % of control | dose: 30.0 mg/kg/injection, schedule: Q04DX003 (ip), vehicle: alcohol 110 % of control | dose: 36.0 mg/kg/injection, schedule: Q01DX009 (ip), vehicle: carboxymethylcellulose (CMC) 98 % of control | [1] 111 % of control | dose: 50.0 mg/kg/injection, schedule: Q01DX009 (ip), vehicle: carboxymethylcellulose (CMC) 104 % of control | dose: 50.0 mg/kg/injection, schedule: Q01DX009 (ip), vehicle: saline 101 % of control | dose: 50.0 mg/kg/injection, schedule: Q04DX003 (ip), vehicle: alcohol 110 % of control | dose: 75.0 mg/kg/injection, schedule: Q01DX009 (ip), vehicle: carboxymethylcellulose (CMC) 102 % of control | dose: 75.0 mg/kg/injection, schedule: Q04DX003 (ip), vehicle: alcohol 121 % of control | [2] 105 % of control | dose: 100.0 mg/kg/injection, schedule: Q01DX009 (ip), vehicle: saline 109 % of control | dose: 112.0 mg/kg/injection, schedule: Q01DX009 (ip), vehicle: alcohol 103 % of control and 108 % of control | dose: 112.0 mg/kg/injection, schedule: Q01DX009 (ip), vehicle: carboxymethylcellulose (CMC) 96 % of control | dose: 112.0 mg/kg/injection, schedule: Q04DX003 (ip), vehicle: alcohol 118 % of control | dose: 178.0 mg/kg/injection, schedule: Q01DX009 (ip), vehicle: carboxymethylcellulose (CMC) 107 % of control | dose: 178.0 mg/kg/injection, schedule: Q01DX015 (ip), vehicle: saline 103 % of control | [3] 105 % of control | dose: 267.0 mg/kg/injection, schedule: Q01DX009 (ip), vehicle: carboxymethylcellulose (CMC) 96 % of control | dose: 267.0 mg/kg/injection, schedule: Q01DX015 (ip), vehicle: saline 108 % of control | [4] 115 % of control | dose: 400.0 mg/kg/injection, schedule: Q01DX009 (ip), vehicle: carboxymethylcellulose (CMC) 98 % of control | dose: 400.0 mg/kg/injection, schedule: Q01DX015 (ip), vehicle: saline 106 % of control | dose: 600.0 mg/kg/injection, schedule: Q01DX009 (ip), vehicle: carboxymethylcellulose (CMC) 96 % of control | dose: 600.0 mg/kg/injection, schedule: Q01DX015 (ip), vehicle: saline 94 % of control

CC(C)=CCC(CCN1CCOCC1)(C(N)=O)c1cccc2ccccc12 (stereo unspecified)
inactive: dose: 6.25 mg/kg/injection, schedule: Q04DX003 (ip), vehicle: Klucel (hydroxypropylcellulose) (HPC) 104 % of control | dose: 12.5 mg/kg/injection, schedule: Q01DX009 (ip), vehicle: Klucel (hydroxypropylcellulose) (HPC) 96 % of control | dose: 12.5 mg/kg/injection, schedule: Q04DX003 (ip), vehicle: Klucel (hydroxypropylcellulose) (HPC) 94 % of control | dose: 25.0 mg/kg/injection, schedule: Q01DX009 (ip), vehicle: Klucel (hydroxypropylcellulose) (HPC) 104 % of control | dose: 25.0 mg/kg/injection, schedule: Q04DX003 (ip), vehicle: Klucel (hydroxypropylcellulose) (HPC) 98 % of control | dose: 50.0 mg/kg/injection, schedule: Q01DX009 (ip), vehicle: Klucel (hydroxypropylcellulose) (HPC) 90 % of control

COc1cc(Br)c2c(c1OC)C1(CC[N+](C)(C)C)CC(=O)CCC1CC2 (stereo unspecified)
inactive: dose: 12.5 mg/kg/injection, schedule: Q01DX001 (ip), vehicle: saline 97 % of control | dose: 25.0 mg/kg/injection, schedule: Q01DX001 (ip), vehicle: saline 97 % of control | [1] 94 % of control | [2] 97 % of control

O=C(Cn1ccc(O)cc1=O)c1ccco1
inactive: [5] 108 % of control | [6] 96 % of control | dose: 200.0 mg/kg/injection, schedule: Q01DX009 (ip), vehicle: saline with Tween-80 104 % of control | [7] 94 % of control | [8] 101 % of control | dose: 400.0 mg/kg/injection, schedule: Q04DX003 (ip), vehicle: saline with Tween-80 97 % of control

ClC(Cl)(NC1CCCCC1)NC1CCCCC1
inactive: [2] 90 % of control | [3] 91 % of control | [4] 86 % of control

C[CH2][Sn]([Cl])([Cl])[CH2]C.Oc1ccccc1C=NCCN=Cc1ccccc1O
inactive: dose: 5.0 mg/kg/injection, schedule: Q01DX009 (ip), vehicle: saline with Tween-80 98 % of control | dose: 5.0 mg/kg/injection, schedule: Q04DX003 (ip), vehicle: saline with Tween-80 106 % of control | dose: 10.0 mg/kg/injection, schedule: Q01DX009 (ip), vehicle: saline with Tween-80 97 % of control | dose: 10.0 mg/kg/injection, schedule: Q04DX003 (ip), vehicle: saline with Tween-80 100 % of control | dose: 20.0 mg/kg/injection, schedule: Q04DX003 (ip), vehicle: saline with Tween-80 108 % of control

Cc1ccc(NC(=O)COc2cc(Cl)c(Cl)cc2Cl)cc1C
inactive: [9] 89 % of control | [10] 97 % of control | [5] 89 % of control | [8] 94 % of control

C/C(=N\O)C(O)c1ccccc1 (stereo unspecified)
inactive: dose: 50.0 mg/kg/injection, schedule: Q01DX001 (ip), vehicle: other 97 % of control | dose: 100.0 mg/kg/injection, schedule: Q01DX001 (ip), vehicle: other 89 % of control | dose: 200.0 mg/kg/injection, schedule: Q01DX001 (ip), vehicle: other 97 % of control | dose: 400.0 mg/kg/injection, schedule: Q01DX001 (ip), vehicle: other 92 % of control

c1ccc(C(Nc2ccnc3nc[nH]c23)c2ccccc2)cc1
inactive: dose: 25.0 mg/kg/injection, schedule: Q01DX001 (ip), vehicle: saline with Tween-80 107 % of control | dose: 50.0 mg/kg/injection, schedule: Q01DX001 (ip), vehicle: saline with Tween-80 102 % of control | [10] 96 % of control | [11] 95 % of control | dose: 75.0 mg/kg/injection, schedule: Q01DX001 (ip), vehicle: saline with Tween-80 101 % of control | dose: 100.0 mg/kg/injection, schedule: Q01DX001 (ip), vehicle: saline with Tween-80 94 % of control | [5] 107 % of control | [6] 91 % of control | dose: 200.0 mg/kg/injection, schedule: Q01DX001 (ip), vehicle: saline with Tween-80 93 % of control | [7] 92 % of control

CCN(CCS)Cc1ccccc1
inactive: [9] 95 % of control | dose: 25.0 mg/kg/injection, schedule: Q04DX003 (ip), vehicle: saline with Tween-80 94 % of control | [10] 97 % of control | [11] 91 % of control | [5] 95 % of control | [6] 91 % of control

CCCCC(=O)N/N=C/c1ccc(O)cc1O
inactive: [2] 97 % of control | [3] 92 % of control | [4] 94 % of control

O=[N+]([O-])c1cccc(N(CCF)CCF)c1
inactive: dose: 5.0 mg/kg/injection, schedule: Q01DX001 (ip), vehicle: carboxymethylcellulose (CMC) 103 % of control | dose: 10.0 mg/kg/injection, schedule: Q01DX001 (ip), vehicle: carboxymethylcellulose (CMC) 103 % of control | dose: 20.0 mg/kg/injection, schedule: Q01DX001 (ip), vehicle: carboxymethylcellulose (CMC) 112 % of control
